In patent US20240059689A1, “PURINE DERIVATIVES AS ANTICANCER AGENTS” (Tango Therapeutics, Inc., priority 2021, published 2024):
pIC50: −log10 of the molar value.

Columns and labels:
USP1-UAF1 = USP1-UAF1 (Homo sapiens, UniProt O94782); assay: Ubiquitin Rhodamine assay of USP1-UAF1 activity; type: biochemical
Method: Certain compounds of the disclosure were assessed for USP1-UAF1 activity in a Ubiquitin Rhodamine assay as described in Biology Example 1.

monoubiquitinated PCNA = assay: AlphaLISA assay measuring monoubiquitinated PCNA in MDA-MB-436; type: cell-based; conditions: Homo sapiens, MDA-MB-436, monoubiquitinated PCNA, read-out: Alpha Lisa IC50
Text: Table 1 also indicates IC50 values for exemplary compounds in an AlphaLISA assay measuring monoubiquitinated PCNA in a BRCA1 mutant cell line (MDA-MB-436; column 7).

MDA-MB-436 = assay: Viability assay, BRCA1 mutant cell line MDA-MB-436; type: cell-based; conditions: Homo sapiens, MDA-MB-436, viability, BRCA1 mutant MDA-MB-436; read-out: MDA-MB-436 rel IC50
Text: (§1) Table 1 also indicates IC50 values in a viability assay for a non-isogenic pair of BRCA1 mutant (column 5-MDA-MB-436) and BRCA1 WT (column 6—HCC1954) cell lines. These values indicate the effect of treatment with compound on cell survival.

HCC1954 = assay: Viability assay, BRCA1 WT cell line HCC1954; type: cell-based; conditions: Homo sapiens, HCC1954, viability, read-out: HCC1954 rel IC50
Text: as §1

Chain of USP1-UAF1 (O94782 whole entry): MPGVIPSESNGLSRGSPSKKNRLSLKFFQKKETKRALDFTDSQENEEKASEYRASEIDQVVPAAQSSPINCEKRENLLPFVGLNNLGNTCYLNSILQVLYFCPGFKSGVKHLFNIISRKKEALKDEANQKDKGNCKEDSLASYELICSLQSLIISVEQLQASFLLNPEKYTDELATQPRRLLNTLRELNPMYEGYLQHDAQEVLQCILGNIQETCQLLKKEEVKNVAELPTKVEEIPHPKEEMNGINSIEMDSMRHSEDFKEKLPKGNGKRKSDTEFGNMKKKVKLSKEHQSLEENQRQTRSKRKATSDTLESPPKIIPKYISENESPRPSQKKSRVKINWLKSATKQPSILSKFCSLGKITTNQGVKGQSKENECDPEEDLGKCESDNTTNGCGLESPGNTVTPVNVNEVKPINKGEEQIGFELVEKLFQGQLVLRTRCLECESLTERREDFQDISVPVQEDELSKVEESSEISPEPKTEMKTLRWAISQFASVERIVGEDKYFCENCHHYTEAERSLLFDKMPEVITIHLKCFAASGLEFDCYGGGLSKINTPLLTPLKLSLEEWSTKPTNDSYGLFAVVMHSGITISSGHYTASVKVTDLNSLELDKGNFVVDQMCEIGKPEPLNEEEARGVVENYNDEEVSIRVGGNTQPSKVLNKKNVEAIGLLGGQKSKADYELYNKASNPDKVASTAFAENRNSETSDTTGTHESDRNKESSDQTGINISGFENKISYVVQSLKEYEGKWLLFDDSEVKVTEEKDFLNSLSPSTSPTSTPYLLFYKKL
Chain of USP1-UAF1 (Q8TAF3 whole entry partner): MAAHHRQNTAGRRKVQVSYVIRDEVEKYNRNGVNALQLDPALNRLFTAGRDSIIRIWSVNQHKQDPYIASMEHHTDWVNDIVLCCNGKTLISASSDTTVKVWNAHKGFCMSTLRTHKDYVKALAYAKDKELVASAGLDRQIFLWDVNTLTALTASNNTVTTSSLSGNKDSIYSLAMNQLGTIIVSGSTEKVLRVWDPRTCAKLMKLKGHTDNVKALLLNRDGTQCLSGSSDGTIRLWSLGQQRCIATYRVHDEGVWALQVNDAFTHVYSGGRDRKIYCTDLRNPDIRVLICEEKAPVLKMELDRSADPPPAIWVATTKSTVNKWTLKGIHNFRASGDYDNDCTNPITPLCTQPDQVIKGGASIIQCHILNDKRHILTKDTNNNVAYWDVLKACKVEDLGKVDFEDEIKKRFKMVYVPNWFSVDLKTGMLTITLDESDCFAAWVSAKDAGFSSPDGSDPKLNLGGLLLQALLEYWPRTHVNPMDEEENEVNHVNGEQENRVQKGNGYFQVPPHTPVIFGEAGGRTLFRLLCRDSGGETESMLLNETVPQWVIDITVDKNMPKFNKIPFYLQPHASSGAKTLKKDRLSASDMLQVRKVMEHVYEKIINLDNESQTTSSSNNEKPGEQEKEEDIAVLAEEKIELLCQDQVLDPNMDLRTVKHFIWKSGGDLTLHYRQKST

Cn1cc(C(F)(F)F)nc1-c1ccc(Cn2c(=N)n(C)c3cnc(-c4ccccc4[C@H](O)C(F)(F)F)nc32)cc1 (single isomer, unassigned) [Example T-129, 2,2,2-trifluoro-[2-[8-imino-7-methyl-9-[[4-[I-methyl-4-(trifluoromethyl)imidazol-2-yl]phenyl]methyl]purin-2-yl]phenyl]ethanol]
pIC50 (USP1-UAF1): 7.00 to 7.52
pIC50 (monoubiquitinated PCNA): 6.60 to 7.00
pIC50 (MDA-MB-436): 6.60 to 7.00
pIC50 (HCC1954): ≤ 5.00

Cn1cc(C(F)(F)F)nc1-c1ccc(Cn2c(=N)n(C)c3cnc(-c4ccccc4[C@@H](O)C(F)(F)F)nc32)cc1 (single isomer, unassigned) [Example T-148, 2,2,2-trifluoro-[2-[8-imino-7-methyl-9-[[4-[I-methyl-4-(trifluoromethyl)imidazol-2-yl]phenyl]methyl]purin-2-yl]phenyl]ethanol]
pIC50 (USP1-UAF1): 5.00 to 7.00
pIC50 (monoubiquitinated PCNA): 6.60 to 7.00
pIC50 (MDA-MB-436): 5.00 to 6.60
pIC50 (HCC1954): ≤ 5.00

CC(C)c1ccccc1-c1ncc2c(n1)n(Cc1ccc(-c3ncc(C(F)(F)F)n3C)cc1)c(=N)n2C [Example A-1, 2-(2-isopropylphenyl)-7-methyl-9-(4-(J-methyl-5-(trifluoromethyl)-1H-imidazol-2-yl)benzyl)-7H-purin-8(9H)-imine]
pIC50 (USP1-UAF1): 5.00 to 7.00
pIC50 (monoubiquitinated PCNA): 5.00 to 6.60
pIC50 (MDA-MB-436): 5.00 to 6.60
pIC50 (HCC1954): 5.00 to 6.60

CC(C)c1ccccc1-c1ncc2c(n1)n(CC1CCN(c3nc(Cl)cn3C)CC1)c(=N)n2C [Example A-3, 9-((1-(4-chloro-1-methyl-1H-imidazol-2-yl)piperidin-4-yl)methyl)-2-(2-isopropylphenyl)-7-methyl-7H-purin-8(9H)-imine]
pIC50 (USP1-UAF1): 5.00 to 7.00
pIC50 (monoubiquitinated PCNA): 5.00 to 6.60
pIC50 (MDA-MB-436): 5.00 to 6.60
pIC50 (HCC1954): ≤ 5.00

CC(C)c1ccccc1-c1ncc2c(n1)n(Cc1ccc(-c3nc(C(F)(F)F)c[nH]3)cc1)c(=N)n2C [Example A-5, 2-(2-isopropylphenyl)-7-methyl-9-(4-(4-(trifluoromethyl)-1H-imidazol-2-yl)benzyl)-7,9-dihydro-8H-purin-8-imine]
pIC50 (USP1-UAF1): 7.00 to 7.52
pIC50 (monoubiquitinated PCNA): 5.00 to 6.60
pIC50 (MDA-MB-436): 5.00 to 6.60
pIC50 (HCC1954): 5.00 to 6.60

CC(C)c1ccccc1-c1ncc2c(n1)n(Cc1ccc(-c3nc(Cl)cn3C)cc1)c(=N)n2C [Example A-6, 9-(4-(4-chloro-1-methyl-1H-imidazol-2-yl)benzyl)-2-(2-isopropylphenyl)-7-methyl-7,9-dihydro-8H-purin-8-imine]
pIC50 (USP1-UAF1): > 7.52
pIC50 (monoubiquitinated PCNA): > 7.00
pIC50 (MDA-MB-436): > 7.00
pIC50 (HCC1954): ≤ 5.00

Cc1nc(-c2ccccc2C(C)C)nc2c1n(C)c(=N)n2Cc1ccc(-c2nc(C(F)(F)F)cn2C)cc1 [Example A-8, 2-(2-isopropylphenyl)-6,7-dimethyl-9-(4-(1-methyl-4-(trifluoromethyl)-1H-imidazol-2-yl)benzyl)-7,9-dihydro-8H-purin-8-imine]
pIC50 (USP1-UAF1): > 7.52
pIC50 (monoubiquitinated PCNA): > 7.00
pIC50 (MDA-MB-436): > 7.00
pIC50 (HCC1954): 5.00 to 6.60

Cn1cc(Cl)nc1-c1ccc(Cn2c(=N)n(C)c3cnc(-c4ccccc4Cl)nc32)cc1 [Example A-11, 9-(4-(4-chloro-1-methyl-1H-imidazol-2-yl)benzyl)-2-(2-chlorophenyl)-7-methyl-7,9-dihydro-8H-purin-8-imine]
pIC50 (USP1-UAF1): 5.00 to 7.00
pIC50 (monoubiquitinated PCNA): 5.00 to 6.60
pIC50 (MDA-MB-436): 5.00 to 6.60
pIC50 (HCC1954): ≤ 5.00

C=C(C)c1ccccc1-c1ncc2c(n1)n(Cc1ccc(-c3nc(Cl)cn3C)cc1)c(=N)n2C [Example A-12, 9-(4-(4-chloro-1-methyl-1H-imidazol-2-yl)benzyl)-7-methyl-2-(2-(prop-1-en-2-yl)phenyl)-7,9-dihydro-8H-purin-8-imine]
pIC50 (USP1-UAF1): > 7.52
pIC50 (monoubiquitinated PCNA): > 7.00
pIC50 (MDA-MB-436): > 7.00
pIC50 (HCC1954): ≤ 5.00

CC(C)c1ccccc1-c1nc(C#N)c2c(n1)n(Cc1ccc(-c3nc(C(F)(F)F)cn3C)cc1)c(=N)n2C [Example A-13, 8-imino-2-(2-isopropylphenyl)-7-methyl-9-(4-(1-methyl-4-(trifluoromethyl)-1H-imidazol-2-yl)benzyl)-8,9-dihydro-7H-purine-6-carbonitrile]
pIC50 (USP1-UAF1): 5.00 to 7.00
pIC50 (monoubiquitinated PCNA): 5.00 to 6.60
pIC50 (MDA-MB-436): 5.00 to 6.60
pIC50 (HCC1954): 5.00 to 6.60

CCn1c(=N)n(Cc2ccc(-c3nc(C(F)(F)F)cn3C)cc2)c2nc(-c3ccccc3C(C)C)ncc21 [Example A-14, 7-ethyl-2-(2-isopropylphenyl)-9-(4-(1-methyl-4-(trifluoromethyl)-1H-imidazol-2-yl)benzyl)-7,9-dihydro-8H-purin-8-imine]
pIC50 (USP1-UAF1): > 7.52
pIC50 (monoubiquitinated PCNA): > 7.00
pIC50 (MDA-MB-436): > 7.00
pIC50 (HCC1954): 5.00 to 6.60

C=C(C)c1ccccc1-c1nc(C)c2c(n1)n(Cc1ccc(-c3nc(C(F)(F)F)cn3C)cc1)c(=N)n2C [Example A-16, 6,7-dimethyl-9-(4-(1-methyl-4-(trifluoromethyl)-1H-imidazol-2-yl)benzyl)-2-(2-(prop-1-en-2-yl)phenyl)-7,9-dihydro-8H-purin-8-imine]
pIC50 (USP1-UAF1): > 7.52
pIC50 (monoubiquitinated PCNA): > 7.00
pIC50 (MDA-MB-436): > 7.00
pIC50 (HCC1954): 5.00 to 6.60

CC(C)c1ccccc1-c1nc(N(C)C)c2c(n1)n(Cc1ccc(-c3nc(C(F)(F)F)cn3C)cc1)c(=N)n2C [Example A-17, 8-imino-2-(2-isopropylphenyl)-N,N,7-trimethyl-9-(4-(1-methyl-4-(trifluoromethyl)-1H-imidazol-2-yl)benzyl)-8,9-dihydro-7H-purin-6-amine]
pIC50 (USP1-UAF1): 5.00 to 7.00
pIC50 (monoubiquitinated PCNA): 5.00 to 6.60
pIC50 (MDA-MB-436): 5.00 to 6.60
pIC50 (HCC1954): 5.00 to 6.60

CNc1nc(-c2ccccc2C(C)C)nc2c1n(C)c(=N)n2Cc1ccc(-c2nc(C(F)(F)F)cn2C)cc1 [Example A-18, 8-imino-2-(2-isopropylphenyl)-N, 7-dimethyl-9-(4-(1-methyl-4-(trifluoromethyl)-1H-imidazol-2-yl)benzyl)-8,9-dihydro-7H-purin-6-amine]
pIC50 (USP1-UAF1): 5.00 to 7.00
pIC50 (monoubiquitinated PCNA): ≤ 5.00
pIC50 (MDA-MB-436): 5.00 to 6.60
pIC50 (HCC1954): 5.00 to 6.60

Cc1cc(Cl)nn1-c1ccc(Cn2c(=N)n(C)c3cnc(-c4ccccc4C(C)C)nc32)cc1 [Example A-21, 9-(4-(3-chloro-5-methyl-1H-pyrazol-1-yl)benzyl)-2-(2-isopropylphenyl)-7-methyl-7,9-dihydro-8H-purin-8-imine]
pIC50 (USP1-UAF1): > 7.52
pIC50 (monoubiquitinated PCNA): > 7.00
pIC50 (MDA-MB-436): > 7.00
pIC50 (HCC1954): 5.00 to 6.60

CC(C)c1ccccc1-c1nc(C2CC2)c2c(n1)n(Cc1ccc(-c3nc(C(F)(F)F)cn3C)cc1)c(=N)n2C [Example A-23, 6-cyclopropyl-2-(2-isopropylphenyl)-7-methyl-9-(4-(1-methyl-4-(trifluoromethyl)-1H-imidazol-2-yl)benzyl)-7,9-dihydro-8H-purin-8-imine]
pIC50 (USP1-UAF1): > 7.52
pIC50 (monoubiquitinated PCNA): 5.00 to 6.60
pIC50 (MDA-MB-436): 5.00 to 6.60
pIC50 (HCC1954): 5.00 to 6.60

CC(C)c1ccccc1-c1ncc2c(n1)n(Cc1ccc(-n3ccc(C(F)(F)F)n3)cc1)c(=N)n2C [Example A-24, 2-(2-isopropylphenyl)-7-methyl-9-(4-(3-(trifluoromethyl)-1H-pyrazol-1-yl)benzyl)-7,9-dihydro-8H-purin-8-imine]
pIC50 (USP1-UAF1): 7.00 to 7.52
pIC50 (monoubiquitinated PCNA): 5.00 to 6.60
pIC50 (MDA-MB-436): 5.00 to 6.60
pIC50 (HCC1954): 5.00 to 6.60

CC(C)c1ccccc1-c1ncc2c(n1)n(Cc1ccc(-c3nc(C(F)(F)F)cs3)cc1)c(=N)n2C [Example A-25, 2-(2-isopropylphenyl)-7-methyl-9-(4-(4-(trifluoromethyl)thiazol-2-yl)benzyl)-7,9-dihydro-8H-purin-8-imine]
pIC50 (USP1-UAF1): 7.00 to 7.52
pIC50 (monoubiquitinated PCNA): 5.00 to 6.60
pIC50 (MDA-MB-436): 5.00 to 6.60
pIC50 (HCC1954): 5.00 to 6.60

Cc1nc(-c2cc(F)ccc2C(C)C)nc2c1n(C)c(=N)n2Cc1ccc(-c2nc(Cl)cn2C)cc1 [Example A-27, 9-(4-(4-chloro-1-methyl-1H-imidazol-2-yl)benzyl)-2-(5-fluoro-2-isopropylphenyl)-6,7-dimethyl-7,9-dihydro-8H-purin-8-imine]
pIC50 (USP1-UAF1): > 7.52
pIC50 (monoubiquitinated PCNA): 6.60 to 7.00
pIC50 (MDA-MB-436): 5.00 to 6.60
pIC50 (HCC1954): 5.00 to 6.60

Cc1nc(-c2cccc(F)c2C(C)C)nc2c1n(C)c(=N)n2Cc1ccc(-c2nc(Cl)cn2C)cc1 [Example A-28, 9-(4-(4-chloro-1-methyl-1H-imidazol-2-yl)benzyl)-2-(3-fluoro-2-isopropylphenyl)-6,7-dimethyl-7,9-dihydro-8H-purin-8-imine]
pIC50 (USP1-UAF1): > 7.52
pIC50 (monoubiquitinated PCNA): > 7.00
pIC50 (MDA-MB-436): > 7.00
pIC50 (HCC1954): ≤ 5.00

CC(C)c1ccccc1-c1ncc2c(n1)n(Cc1ccc(-c3nc(C(F)(F)F)cn3C)cc1F)c(=N)n2C [Example A-29, 9-(2-fluoro-4-(1-methyl-4-(trifluoromethyl)-1H-imidazol-2-yl)benzyl)-2-(2-isopropylphenyl)-7-methyl-7,9-dihydro-8H-purin-8-imine]
pIC50 (USP1-UAF1): > 7.52
pIC50 (monoubiquitinated PCNA): > 7.00
pIC50 (MDA-MB-436): > 7.00
pIC50 (HCC1954): ≤ 5.00

C=C(C)c1c(F)cccc1-c1nc(C)c2c(n1)n(Cc1ccc(-c3nc(Cl)cn3C)cc1)c(=N)n2C [Example A-30, 9-(4-(4-chloro-1-methyl-1H-imidazol-2-yl)benzyl)-2-(3-fluoro-2-(prop-1-en-2-yl)phenyl)-6,7-dimethyl-7,9-dihydro-8H-purin-8-imine]
pIC50 (USP1-UAF1): > 7.52
pIC50 (monoubiquitinated PCNA): > 7.00
pIC50 (MDA-MB-436): > 7.00
pIC50 (HCC1954): 5.00 to 6.60

C=C(C)c1c(F)cccc1-c1nc(C)c2c(n1)n(Cc1ccc(-c3nc(C(F)(F)F)cn3C)cc1)c(=N)n2C [Example A-31, 2-(3-fluoro-2-(prop-1-en-2-yl)phenyl)-6,7-dimethyl-9-(4-(1-methyl-4-(trifluoromethyl)-1H-imidazol-2-yl)benzyl)-7,9-dihydro-8H-purin-8-imine]
pIC50 (USP1-UAF1): > 7.52
pIC50 (monoubiquitinated PCNA): > 7.00
pIC50 (MDA-MB-436): > 7.00
pIC50 (HCC1954): 5.00 to 6.60
